Molecules are shown by their SMILES.

One experiment has as its system LN229 MGMT− MMR+ cells. The experiment is described as follows: Anticancer activity towards LN229 human brain glioblastoma cells (nuclei count after 120 hours). The class given is cell-based. The conditions noted are these: LN-229, LN229 quad cells, 200 μM to 0.1 uM. As for the experimental part: (§1) Exemplary compounds were evaluated for activity against LN229 human brain glioblastoma cells. Experimental procedures and results are provided elsewhere herein.
(§2) LN229 quad cells were maintained in Dulbecco's Modified Eagle Medium (DMEM) supplemented with 10% fetal bovine serum. Cells were plated into sterile black with glass bottom 384-well plates (Cellvis) at a concentration of 1,000 cells/well (20 μL total volume) using a MultiDrop (Thermo Fisher). Then, assay plates were centrifuged at 300 rpm for 2 seconds and incubated overnight in a 37° C. 5% CO2 incubator. Compounds were prepared as 100 mM stocks in DMSO and stored protected from light at −20′C until use. Prior to compound addition, the stock solutions of compound were diluted two-fold serially in DMSO from 100 mM down to 0.05 mM in a 384-well Source plate. Vehicle control wells containing DMSO and positive control wells containing 10 mM bortezomib were also added to the Source plate. An aliquot in the amount of 40 nL of compound stock solution or DMSO vehicle was transferred from the source plate to the cell assay plate using an Echo Acoustic dispense (Beckman). Three replicate dilution curves of each compound were run on each assay plate. An aliquot in the amount of 120 nL of a 10 mM bortezomib solution was transferred to the positive control wells resulting in a final concentration of 60 μM. The final concentration of compounds ranged from 200 μM to 0.1 uM (12-point, 2-fold dilution dose response curve), and the final DMSO concentration was 0.2%.
(§3) Assay plates were centrifuged at 500 rpm for 2 seconds and incubated for 120 hours at 37° C. in a humidified 5% CO2 incubator. Following incubation, cells were fixed with 4% paraformaldehyde and stained with DAPI for nuclei visualization. The images were acquired on the InCell 2200 high content imager (GE, now […]), and quantified using InCell Analyzer image analysis software. Z prime factor, signal-to-background and coefficient of variation were calculated for each assays plate using mean and standard deviation values of the negative (vehicle) and positive (bortezomib) control wells to ensure assay robustness. Raw cell count data for test compounds was normalized to percent viability relative to the DMSO vehicle control. Data was plotted in GraphPad Prism using a variable slope 4-parameter fit.

The subject of another experiment is LN229 MGMT− MMR− cells. Described as above. In kind it is cell-based. The conditions noted are these: LN-229, LN229 quad cells, 200 μM to 0.1 uM. As for the experimental part:
as §1, §2, §3

Experiment [1] concerns LN229 MGMT−/MMR− intracranial tumors. The experiment is described as follows: Anti-cancer activity in mice having tumors formed from LN-229 human brain glioblastoma cells. The class given is in vivo, mouse. The conditions noted are these: 25 mg/kg PO for 5 days; compared with vehicle, TMZ, or KL50. As for the experimental part: Mice bearing tumors formed from LN-229 human brain glioblastoma cells were prepared as follows: LN229 MGMT−/MMR− cells stably expressing firefly luciferase (lentivirus-plasmids from Cellomics Technology; PLV-10003) were injected intracranially into mice using a stereotactic injector. For this procedure, 1.5 million LN229 MGMT−/MMR− cells in 5 μl PBS were injected into the brain of the mice subjects, and then the mice were imaged weekly using the IVIS Spectrum In Vivo Imaging System (PerkinElmer) according to the manufacturer's protocol. Images were taken on a weekly basis and acquired 10 min post intraperitoneal injection with d-luciferin (150 mg/kg of animal mass). Tumors were allowed to grow to an average of 1.0×10^8 RLU before randomization of the mice.
Treatments using study compounds were administered PO (oral gavage), with 10% cyclodextrin vehicle control or study compound, according to the indicated treatment regimen. Animals were observed daily, with weekly tumor imaging and body weight measurements. Quantification of BLI flux (photons/sec) was made through the identification of a region of interest (ROI) for each tumor.
Study compounds were administered to mice at a dose of 25 mg/kg PO for 5 days; thereafter no further study compound was administered to the mice.
Statistical analysis of data was performed using GraphPad Prism software. Data was presented as mean±SEM. […]

Experiment [2] relates to DLD1 BRCA2+/− and BRCA2−/− cells. Nature of the experiment: Short-term cell viability assay in DLD1 isogenic model. The class given is cell-based, human. As for the experimental part: FIGS. Z4A-Z4I. KL-50 (4a) activates DNA damage response pathways and cycle arrest in MGMT− cells, independent of MMR, and induces sensitivity in cells deficient in ICL or HR repair. (FIGS. Z4A, Z4B, and Z4C) Phospho-SER139-H2AX (γH2AX) (A), 53BP1 (FIG. Z4B), and phospo-SER33-RPA2 (pRPA) (FIG. Z4C) foci formation quantified by % cells with 10 foci in LN229 MGMT+/−, MMR+/− cells treated with 0.1% DMSO control, 20 μM KL-50 (4a), or 20 μM TMZ (1a) for 48 h. Columns, mean; error bars, SD; n≥5 technical replicates. Additional time course data is presented in FIG. ZS6B to D. (FIG. Z4D) Representative foci images of data in (FIG. Z4A) to (FIG. Z4C). (FIG. Z4E) Percentage of cells in G1, S, and G2 cell cycle phases after treatment as in (A) to (C), measured using integrated nuclear (Hoechst) staining intensity. Columns, mean; error bars, SD; n=3 independent analyses. (FIG. Z4F) Change in percent cells with 1 micronuclei from baseline (DMSO control) after treatment as in (FIG. Z4A) to (FIG. Z4C). Columns, mean; error bars, SD; […] technical replicates; **** p<0.0001; ns, not significant. Additional validation is presented in FIG. ZS9, A and B. (FIG. Z4G) Short-term viability assay curves for KL-50 (4a) in PD20 cells, deficient in FANCD2 (FANCD2−/−) or complemented with FANCD2 (+FANCD2). (FIG. Z4H) Short-term viability assay curves for KL-50 (4a) in PEO4 (BRCA2+) and PEO1 (BRCA2−/−) cells pre-treated with 0.01% DMSO control or 10 μM O^6BG (+O^6BG) for 1 h prior to KL-50 (4a) addition. (FIG. Z4I) Short-term viability assay curves for KL-50 (4a) in DLD1 BRCA2+/− and BRCA2−/− cells pre-treated with 0.01% DMSO control or 10 μM O^6BG (+O^6BG) for 1 h prior to KL-50 (4a) addition. For (FIG. Z4G), (FIG. Z4H), and (FIG. Z4I), points, mean; error bars, SD; n=3 technical replicates.
Short-term Cell Viability Assay. Cells were seeded in 96-well plates at 1000 or 2000 cells/well and allowed to adhere at 23° C. for 60 min and then incubated overnight at 37° C. Cells were treated with indicated concentrations of compounds in triplicate for 4-6 days prior to fixation with 3.7% paraformaldehyde and nuclear staining with 1 μg/mL Hoechst 33342 dye. Cells were imaged on a Cytation 3 imaging reader (BioTek) and quantified using CellProfiler software.

As to `CNC(=O)c1ncn2c(=O)n(CCF)nnc12` [Compound I-1, 3-(2-fluoroethyl)-N-methyl-4-oxo-3H,4H-imidazo[4,3-d][1,2,3,5]tetrazine-8-carboxamide], the IC50 – broadly, the concentration that gives 50% inhibition – in the experiment on LN229 MGMT− MMR+ cells is 10 to 20 µM; with LN229 MGMT− MMR− cells, below 10 µM. Moreover, in experiment [1], the “duration of survival (in words)” value is listed as “longer duration of survival”.

For the compound `NC(=O)c1ncn2c(=O)n(CCF)nnc12` [KL-50, 3-(2-fluoroethyl)-4-oxo-3H,4H-imidazo[4,3-d][1,2,3,5]tetrazine-8-carboxamide], in experiment [2] (DLD1 BRCA2−/− versus BRCA2+/−, ± 10 μM O^6BG), the “sensitivity of BRCA2-deficient cells (in words)” value was “BRCA2 loss enhanced the toxicity”. Further, the “therapeutic index (TI)” value in experiment [2] (ratio of IC50 values in MGMT+/BRCA2+ cells compared to MGMT−/BRCA2− cells) is listed as around 600 fold.

The values above are taken from US20240400572A1, “COMPOUNDS AND METHODS FOR TREATING CANCERS THAT ARE MGMT DEFICIENT REGARDLESS OF MMR STATUS” (Yale University, priority 2021, published 2024).
